Legend:
Kv1.3 potassium channel = target: T1, Kv1.3 potassium channel (Homo sapiens, UniProt P22001); experiment: Kv1.3 potassium channel blocker activity, automated whole-cell patch clamp (Patchliner); type: cell-based
T1 construct: expressed in transfected cells
In short: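 IC50 came from Hill-equation fits of peak and AUC currents from the final pulse at each concentration, normalized to compound-free control. Compounds applied consecutively at 30 nM to 100 μM (up to 0.3% DMSO) to Kv1.3-expressing CHO-K1 cells, P/4 leak subtraction. Pulses were +40 mV, 100 ms, from −90 mV holding, at 0.1 Hz on Patchliner.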

hERG channel = target: T2, hERG channel (Homo sapiens, UniProt Q12809); experiment: hERG electrophysiology, automated whole-cell patch clamp (Patchliner); type: cell-based
T2 construct: expressed in transfected cells
T2 sequence (Q12809 whole entry): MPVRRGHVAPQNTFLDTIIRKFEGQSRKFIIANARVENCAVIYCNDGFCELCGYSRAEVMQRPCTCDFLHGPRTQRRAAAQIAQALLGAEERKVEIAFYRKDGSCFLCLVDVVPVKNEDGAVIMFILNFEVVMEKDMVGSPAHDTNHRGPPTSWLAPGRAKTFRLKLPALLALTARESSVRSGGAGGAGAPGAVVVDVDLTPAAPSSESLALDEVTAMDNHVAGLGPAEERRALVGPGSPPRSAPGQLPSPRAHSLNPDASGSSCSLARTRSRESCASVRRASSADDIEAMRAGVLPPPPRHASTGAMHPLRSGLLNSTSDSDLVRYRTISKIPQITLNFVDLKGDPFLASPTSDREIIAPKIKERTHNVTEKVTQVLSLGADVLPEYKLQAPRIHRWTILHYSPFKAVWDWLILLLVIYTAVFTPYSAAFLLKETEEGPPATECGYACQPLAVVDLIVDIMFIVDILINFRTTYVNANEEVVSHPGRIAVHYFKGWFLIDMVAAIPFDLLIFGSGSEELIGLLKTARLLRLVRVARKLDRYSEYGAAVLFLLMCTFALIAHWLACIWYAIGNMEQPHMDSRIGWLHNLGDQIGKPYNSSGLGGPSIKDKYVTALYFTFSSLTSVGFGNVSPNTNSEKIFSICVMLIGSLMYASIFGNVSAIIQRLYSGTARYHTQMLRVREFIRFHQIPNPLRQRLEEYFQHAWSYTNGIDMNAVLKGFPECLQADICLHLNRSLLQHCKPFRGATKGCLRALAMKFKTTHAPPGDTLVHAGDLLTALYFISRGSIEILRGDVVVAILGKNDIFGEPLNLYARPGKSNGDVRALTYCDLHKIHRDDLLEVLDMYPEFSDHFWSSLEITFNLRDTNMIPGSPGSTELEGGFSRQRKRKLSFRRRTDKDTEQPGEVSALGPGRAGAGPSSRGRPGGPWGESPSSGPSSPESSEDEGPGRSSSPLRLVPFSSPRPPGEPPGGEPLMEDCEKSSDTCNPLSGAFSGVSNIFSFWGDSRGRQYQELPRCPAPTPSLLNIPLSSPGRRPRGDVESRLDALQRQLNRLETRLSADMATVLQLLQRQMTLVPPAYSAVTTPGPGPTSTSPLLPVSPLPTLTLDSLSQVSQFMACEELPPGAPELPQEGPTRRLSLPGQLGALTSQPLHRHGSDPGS
In short: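 Currents were recorded at 0.3 Hz from −80 mV, stepping to +20 mV then −50 mV (300 ms each), in stably transfected CHO-K1 cells. Concentrations (30 nM–100 μM, up to 0.3% DMSO) were added sequentially without washout. IC50 came from Hill fits of control-normalized AUC/peak of each train's final pulse.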

[1] = CHO-K1 cells stably expressing Kv1.3, 100 ms pulses from -90 mV to +40 mV, 0.1 Hz
[2] = CHO-K1 cells stably expressing hERG, +20 mV 300 ms, -50 mV 300 ms tail current, 0.3 Hz
[3] = Kv1.3 potassium channel, whole-cell patch clamp
[4] = hERG channel, whole-cell patch clamp

T1 sequence (P22001 whole entry): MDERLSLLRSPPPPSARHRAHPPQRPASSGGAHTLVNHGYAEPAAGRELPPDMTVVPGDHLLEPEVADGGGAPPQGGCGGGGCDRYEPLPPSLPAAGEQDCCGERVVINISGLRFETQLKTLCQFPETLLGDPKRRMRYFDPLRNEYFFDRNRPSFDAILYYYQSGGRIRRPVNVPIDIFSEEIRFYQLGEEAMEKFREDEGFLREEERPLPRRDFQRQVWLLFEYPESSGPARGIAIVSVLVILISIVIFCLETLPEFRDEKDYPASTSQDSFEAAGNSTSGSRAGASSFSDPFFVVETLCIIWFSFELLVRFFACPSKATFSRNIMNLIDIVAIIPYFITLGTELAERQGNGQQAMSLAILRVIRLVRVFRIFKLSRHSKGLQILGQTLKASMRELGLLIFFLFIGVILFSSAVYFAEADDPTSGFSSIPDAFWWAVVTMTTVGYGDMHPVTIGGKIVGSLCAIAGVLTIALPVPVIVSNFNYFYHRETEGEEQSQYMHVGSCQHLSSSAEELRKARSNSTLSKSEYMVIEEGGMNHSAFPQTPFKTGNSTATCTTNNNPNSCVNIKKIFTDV

Row | SMILES | IC50 (Kv1.3 potassium channel; [1]) [µM] | IC50 (hERG channel; [2]) [µM] | IC50 (Kv1.3 potassium channel; [3]) [µM] | IC50 (hERG channel; [4]) [µM]
1 | O=C(CCO)N1CC(=O)N2C[C@@H](c3c(O)ccc(Cl)c3Cl)C[C@H]2C1 [Compound 17, (7R,8aS)-7-(2,3-dichloro-6-hydroxyphenyl)-2-(3-hydroxypropanoyl)hexa-hydropyrrolo[1,2-a]pyrazin-4(1H)-one] | < 1 | > 30 |  | 
2 | O=C(CO)N1CCC(=O)N2C[C@@H](c3c(O)ccc(Cl)c3Cl)C[C@H]2C1 [Compound 18, (8R,9aS)-8-(2,3-dichloro-6-hydroxyphenyl)-2-(2-hydroxyacetyl)-hexahydro-1H-pyrrolo[1,2-a][1,4]diazepin-5-one] | < 1 | > 30 |  | 
3 | CC[C@@H](O)C(=O)N1CC(=O)N2CC[C@@H](c3c(O)ccc(Cl)c3Cl)C[C@H]2C1 [Compound 21, (8R,9aS)-8-(2,3-dichloro-6-hydroxyphenyl)-2-[(2R)-2-hydroxybutanoyl]-hexahydro-1H-pyrido[1,2-a]pyrazin-4-one] | < 1 | < 30 |  | 
4 | O=C([C@@H](O)CO)N1CC(=O)N2CC[C@@H](c3c(O)ccc(Cl)c3Cl)C[C@H]2C1 [Compound 23, (8R,9aS)-8-(2,3-dichloro-6-hydroxyphenyl)-2-[(2S)-2,3-dihydroxypropanoyl]-hexahydro-1H-pyrido[1,2-a]pyrazin-4-one] | < 1 | > 30 |  | 
5 | O=C(CO)N1CC(=O)N2CC(c3c(O)ccc(Cl)c3Cl)C[C@H]2C1 (stereo partly drawn) [Compound 24, (8aS)-7-(2,3-dichloro-6-hydroxyphenyl)-2-(2-hydroxyacetyl)-hexahydropyrrolo[1,2-a]pyrazin-4-one] | < 1 | > 30 |  | 
6 | CC1[C@@H]2C[C@H](c3c(O)ccc(Cl)c3Cl)CCN2C(=O)CN1C(=O)CO (stereo partly drawn) [Compound 25, (8R,9aS)-8-(2,3-dichloro-6-hydroxypheny1)-2-(2-hydroxyacetyl)-1-methyl-hexahydro-1H-pyrido[1,2-a]pyrazin-4-one] | < 1 | > 30 |  | 
7 | CO[C@H](CO)C(=O)N1CC(=O)N2CC[C@@H](c3c(O)ccc(Cl)c3Cl)C[C@H]2C1 [Compound 29, (8R,9aS)-8-(2,3-dichloro-6-hydroxyphenyl)-2-[(2R)-3-hydroxy-2-methoxypropanoyl]-hexahydro-1H-pyrido[1,2-a]pyrazin-4-one] | < 1 | > 30 |  | 
8 | O=C1CNC[C@@H]2CC(c3c(O)ccc(Cl)c3Cl)CN12 (stereo partly drawn) [Compound 33, (8aS)-7-(2,3-dichloro-6-hydroxyphenyl)-hexahydro-1H-pyrrolo[1,2-a]pyrazin-4-one trifluoroacetic acid] | < 1 | < 30 |  | 
9 | O=C([C@@H](O)CO)N1CC(=O)N2C[C@@H](c3c(O)ccc(Cl)c3Cl)C[C@H]2C1 [Compound 34, (7R,8aS)-7-(2,3-dichloro-6-hydroxyphenyl)-2-[(2S)-2,3-dihydroxypropanoyl]-hexahydropyrrolo [1,2-a]pyrazin-4-one] | < 1 | > 30 |  | 
10 | CCNC(=O)N1CC(=O)N2C[C@@H](c3c(O)ccc(Cl)c3Cl)C[C@H]2C1 [Compound 35, (7R,8aS)-7-(2,3-dichloro-6-hydroxyphenyl)-N-ethyl-4-oxo-hexahydropyrrolo[1,2-a]pyrazine-2-carboxamide] | < 1 | > 30 |  | 
11 | CNC(=O)N1CC(=O)N2C[C@@H](c3c(O)ccc(Cl)c3Cl)C[C@H]2C1 [Compound 37, (7R,8aS)-7-(2,3-dichloro-6-hydroxyphenyl)-N-methyl-4-oxo-hexahydropyrrolo[1,2-a]pyrazine-2-carboxamide] | < 1 | > 30 |  | 
12 | O=C(CO)N1CC(=O)N2CC[C@@H](c3c(O)cc(Cl)c(Cl)c3Cl)C[C@H]2C1 [Compound 38, (8R,9aS)-2-(2-hydroxyacetyl)-8-(2,3,4-trichloro-6-hydroxyphenyl)octahydro-4H-pyrido[1,2-a]pyrazin-4-one] | < 1 | > 30 |  | 
13 | CN(C)CC(=O)N1CC(=O)N2CC[C@@H](c3c(O)ccc(Cl)c3Cl)C[C@H]2C1 [Compound 40, (8R,9aS)-8-(2,3-dichloro-6-hydroxyphenyl)-2-[2-(dimethylamino)acetyl]-hexahydro-1H-pyrido[1,2-a]pyrazin-4-one] | < 1 | < 30 |  | 
14 | N#CCC(=O)N1CC(=O)N2C[C@@H](c3c(O)ccc(Cl)c3Cl)C[C@H]2C1 [Compound 41, 3-[(7R,8aS)-7-(2,3-dichloro-6-hydroxypheny1)-4-oxo-hexahydropyrrolo[1,2-a]pyrazin-2-yl]-3-oxopropanenitrile] | < 1 | > 30 |  | 
15 | O=C([C@H](O)CO)N1CC(=O)N2C[C@@H](c3c(O)ccc(Cl)c3Cl)C[C@H]2C1 [Compound 42, (7R,8aS)-7-(2,3-dichloro-6-hydroxyphenyl)-2-((R)-2,3-dihydroxypropanoyl) hexahydropyrrolo[1,2-a]pyrazin-4(1H)-one] | < 1 | > 30 |  | 
16 | COC[C@H](O)C(=O)N1CC(=O)N2CC[C@@H](c3c(O)ccc(Cl)c3Cl)C[C@H]2C1 [Compound 44, (8R,9aS)-8-(2,3-dichloro-6-hydroxyphenyl)-2-[(2S)-2-hydroxy-3-methoxypropanoyl]-hexahydro-1H-pyrido[1,2-a]pyrazin-4-one] | < 1 | > 30 |  | 
17 | C[C@@H](CO)C(=O)N1CC(=O)N2CC[C@@H](c3c(O)ccc(Cl)c3Cl)C[C@H]2C1 [Compound 45, (8R,9aS)-8-(2,3-dichloro-6-hydroxyphenyl)-2-((S)-3-hydroxy-2-methylpropanoyl)octahydro-4H-pyrido[1,2-a]pyrazin-4-one] | < 1 | > 30 |  | 
18 | C[C@H]1C(=O)N2CC[C@@H](c3c(O)ccc(Cl)c3Cl)C[C@H]2CN1C(=O)CO [Compound 46, (3S,8R,9aS)-8-(2,3-dichloro-6-hydroxyphenyl)-2-(2-hydroxyacetyl)-3-methyloctahydro-4H-pyrido[1,2-a]pyrazin-4-one] | < 1 | > 30 |  | 
19 | O=C(N1CC(O)C1)N1CC(=O)N2C[C@@H](c3c(O)ccc(Cl)c3Cl)C[C@H]2C1 [Compound 47, (7R,8aS)-7-(2,3-dichloro-6-hydroxypheny1)-2-(3-hydroxyazetidine-1-carbonyl)-hexahydropyrrolo[1,2-a]pyrazin-4-one] | < 1 | > 30 |  | 
20 | C[C@H](O)C(=O)N1CC(=O)N2CC[C@@H](c3c(O)ccc(Cl)c3Cl)C[C@H]2C1 [Compound 49, (8R,9aS)-8-(2,3-dichloro-6-hydroxyphenyl)-2-[(2S)-2-hydroxypropanoyl]-hexahydro-1H-pyrido[1,2-a]pyrazin-4-one] | < 1 | > 30 |  | 
21 | O=C1[C@@H](CO)OC[C@@H]2C[C@H](c3c(O)ccc(Cl)c3Cl)CN12 [Compound 50, (3R,7R,8aS)-7-(2,3-dichloro-6-hydroxyphenyl)-3-(hydroxymethyl)-hexahydropyrrolo[2,1-c][1,4]oxazin-4-one] | < 1 | > 30 |  | 
22 | C[C@H](CO)C(=O)N1CC(=O)N2CC[C@@H](c3c(O)ccc(Cl)c3Cl)C[C@H]2C1 [Compound 54, (8R,9aS)-8-(2,3-dichloro-6-hydroxyphenyl)-2-((R)-3-hydroxy-2-methylpropanoyl)octahydro-4H-pyrido[1,2-a]pyrazin-4-one] | < 1 | > 30 |  | 
23 | NC(=O)N1CC(=O)N2C[C@@H](c3c(O)ccc(Cl)c3Cl)C[C@H]2C1 [Compound 55, (7R,8aS)-7-(2,3-dichloro-6-hydroxyphenyl)-4-oxo-hexahydropyrrolo[1,2-a]pyrazine-2-carboxamide] | < 1 | > 30 |  | 
24 | O=C1[C@@H](CO)NC[C@@H]2C[C@H](c3c(O)ccc(Cl)c3Cl)CCN12 [Compound 57, (3R,8R,9aS)-8-(2,3-dichloro-6-hydroxyphenyl)-3-(hydroxymethyl)-octahydropyrido[1,2-a]pyrazin-4-one] | < 1 | > 30 |  | 
25 | C[C@H](O)CC(=O)N1CC(=O)N2C[C@@H](c3c(O)ccc(Cl)c3Cl)C[C@H]2C1 [Compound 59, (7R,8aS)-7-(2,3-dichloro-6-hydroxyphenyl)-2-[(3S)-3-hydroxybutanoyl]-hexahydropyrrolo[1,2-a]pyrazin-4-one] | < 1 | > 30 |  | 
26 | O=C(CO)N1CC(=O)N2CC[C@@H](c3c(O)ccc(Cl)c3Cl)C[C@H]2C1 [Compound 63, (8R,9aS)-8-(2,3-dichloro-6-hydroxyphenyl)-2-(2-hydroxyacetyl)-hexahydro-1H-pyrido[1,2-a]pyrazin-4-one] |  |  | < 1 | < 30
27 | O=C([C@@H](O)CO)N1CC(=O)N2CC[C@H](c3c(O)ccc(Cl)c3Cl)C[C@@H]2C1 [Compound 64, (8S,9aR)-8-(2,3-dichloro-6-hydroxyphenyl)-2-[(2S)-2,3-dihydroxy-propanoyl]-hexahydro-1H-pyrido[1,2-a]pyrazin-4-one] |  |  | < 1 | > 30
28 | O=C(C(CO)CO)N1CC(=O)N2C[C@@H](c3c(O)ccc(Cl)c3Cl)C[C@H]2C1 [Compound 65, (7R,8aS)-7-(2,3-dichloro-6-hydroxyphenyl)-2-[3-hydroxy-2-(hydroxymethyl)propanoyl]-hexa-hydropyrrolo[1,2-a]pyrazin-4-one] |  |  | < 1 | > 30
29 | CCO[C@H](CO)C(=O)N1CC(=O)N2C[C@@H](c3c(O)ccc(Cl)c3Cl)C[C@H]2C1 [Compound 66, (7R,8aS)-7-(2,3-dichloro-6-hydroxyphenyl)-2-[(2R)-2-ethoxy-3-hydroxypropanoyl]-hexahydropyrrolo[1,2-a]pyrazin-4-one] |  |  | < 1 | > 30

— patent US20230049231A1 (priority 2019, published 2023)
